Here are results for 21 compounds from patent publication US4495195A, “Xanthine oxidase inhibiting 3(5)-phenyl-substituted-5(3)-pyrazole-carboxylic acid derivatives, compositions, and methods of use” (Eli Lilly and Company, priority 1982, dated 1985).

Data set [1] concerns the target T1, xanthine oxidase (Bos taurus, UniProt P80457).
T1 construct: purchased Sigma Chemical Company, St. Louis, Missouri
As to the kind of experiment: in vitro xanthine oxidase assay (rate of uric acid formation from xanthine). Type of data set: biochemical. Here is the method: Xanthine oxidase activity was measured at room temperature by the rate of uric acid formation from xanthine substrate. In a total volume of 1 ml., the incubation mixture contained 50 micromoles of potassium phosphate buffer at pH 7.4, 0.05 micromoles of xanthine and 0.01 units of enzyme preparation (chromatographically purified milk xanthine oxidase, grade III, obtained from Sigma Chemical Company, St. Louis, Missouri). The absorbence change at 292 nm was recored by a Gilford recording spectrophotometer and the uric acid formed was calculated using an extinction coefficient of 12 mM^-1 cm^-1 at 292 nm.

In data set [2] the test system is xanthine oxidase. As to the kind of experiment: oral administration in rats, in vivo inhibition of xanthine oxidase (Table V). Also on record: species or system rat. Here is the method: Compounds corresponding to formulas Ia, Ib and Ic above are active in vivo in lowering plasma uric acid levels. […] The first method, the spectrofluorometric method, was modified from the precedure of Sumi et al., Clinica. Chimica. Acta., 73, 233 (1976). Rats were sacrificed by decapitation and their blood collected into vacutainer tubes containing heparin via heparinized glass funnels. The blood was centrifuged for 8 minutes at 4000 rpm after which time the plasma was separated and diluted 1:1 with water. Plasma protein was precipitated by addition of acetic acid to a final concentration of 0.007 molar and boiling the resulting mixture for 5 minutes in Sorval tubes. Clear deprotein plasma was obtained after centrifugation of the resulting plasma for 30 minutes at 25,000 rpm. Uric acid was assayed as follows: 0.2 ml. aliquots of the clear deproteinized plasma were mixed with 120 λ of uricase (0.045 mu/ml.) and incubated for 30 minutes at 27° C. 1.0 ml. of a p-hydroxyphenylacetic acid buffer was added. […] Fluoroescence of the solution was measured in quartz tubes using an Aminco Bowman-Spectrofluorimeter having excitation of 321 nm and emission at 412 nm. […]
The second method is called the HPLC-EC Detection method. […] Uric acid levels were then calculated from peak areas by computer analysis. […]

Data set [3] relates to plasma level of uric acid. As to the kind of experiment: in vivo lowering of plasma uric acid, oral, rats. To be noted: Rattus norvegicus, read-out: ED50 (dose which reduces plasma level of uric acid by one-half). The protocol:
Compounds corresponding to formulas Ia, Ib and Ic above are active in vivo in lowering plasma uric acid levels. […] The first method, the spectrofluorometric method, was modified from the precedure of Sumi et al., Clinica. Chimica. Acta., 73, 233 (1976). Rats were sacrificed by decapitation and their blood collected into vacutainer tubes containing heparin via heparinized glass funnels. The blood was centrifuged for 8 minutes at 4000 rpm after which time the plasma was separated and diluted 1:1 with water. Plasma protein was precipitated by addition of acetic acid to a final concentration of 0.007 molar and boiling the resulting mixture for 5 minutes in Sorval tubes. Clear deprotein plasma was obtained after centrifugation of the resulting plasma for 30 minutes at 25,000 rpm. Uric acid was assayed as follows: 0.2 ml. aliquots of the clear deproteinized plasma were mixed with 120 λ of uricase (0.045 mu/ml.) and incubated for 30 minutes at 27° C. 1.0 ml. of a p-hydroxyphenylacetic acid buffer was added. Samples obtained from feeding rats or dogs serial doses of the compound under test were incubated with the above buffer solution for 30 minutes at 27° C. Fluoroescence of the solution was measured in quartz tubes using an Aminco Bowman-Spectrofluorimeter having excitation of 321 nm and emission at 412 nm. Five uric acid standards from 6-30 micromolar were assayed for each test and each standard yielded a linear curve.
The second method is called the HPLC-EC Detection method. In this procedure, blood plasma was collected from rats as described above and from dogs in heparinized syringes from the cefalic vein in the forearm. The blood plasma was centrifuged with Sure-Sep to separate plasma. Deproteinized plasma was prepared in each instance by first diluting one volume of plasma with one volume of an internal standard solution, 4 mcg./ml., and then addition of two volumes of 5% trichloroacetic acid. Standards were added to control plasma in the range of 0-8 mcg./ml. of uric acid. Samples obtained by feeding graded doses of the drug under test to dogs or rats were mixed for 30 seconds and then centrifuged in an Eppendorf microcentrifuge. Supernates were diluted 1:10 in column buffer and assayed for uric acid. Internal standards used were 3-methyluric acid for the rat samples and 3,9-dimethyluric acid for dog samples. Assays were performed as follows using a Bioanlaytic Systems Inc. LC-44 analyser and an electrochemical detector system based on an Altex model 110 pump coupled with a CP-O carbon paste electrodetector. […] Uric acid levels were then calculated from peak areas by computer analysis. […]

The next data set can be described thus: oral LD50 in mice. The note with it: mouse, in vivo; for selectivity ratio: LD50 oral mice / ED50 oral rats; for LD50: oral, mice, with standard error, read-out: LD50 (dose which kills one-half of the animals). From the text:
The compounds represented by the above formula are also relatively non-toxic. In column 3 of Table IV are listed the oral LD50 for mice in mg. per kg. (with standard error) for each of the compounds of column 1 (dose which kills one-half of the animals). Finally, column 4 in Table IV gives the ratio of LD50 to ED50. It will be seen that the ratio of the LD50 to the ED50 is quite high, giving a substantial margin of safety for using the compounds of formulas Ia, Ib, and Ic in treating gout in mammals, particularly humans.

Setting [4] is: milk xanthine oxidase, 0.05 micromoles xanthine in 1 ml, pH 7.4, room temperature, read-out: I50 (concentration of drug which inhibits 50% of the oxidation of xanthine to uric acid) (converted).

For orientation: ED50 means the midpoint of the dose-response relation. What is called LD50 is the dose expected to kill half of the subjects tested.

Where two headings read alike, the source gives them in different places.

T1 sequence (P80457 whole entry): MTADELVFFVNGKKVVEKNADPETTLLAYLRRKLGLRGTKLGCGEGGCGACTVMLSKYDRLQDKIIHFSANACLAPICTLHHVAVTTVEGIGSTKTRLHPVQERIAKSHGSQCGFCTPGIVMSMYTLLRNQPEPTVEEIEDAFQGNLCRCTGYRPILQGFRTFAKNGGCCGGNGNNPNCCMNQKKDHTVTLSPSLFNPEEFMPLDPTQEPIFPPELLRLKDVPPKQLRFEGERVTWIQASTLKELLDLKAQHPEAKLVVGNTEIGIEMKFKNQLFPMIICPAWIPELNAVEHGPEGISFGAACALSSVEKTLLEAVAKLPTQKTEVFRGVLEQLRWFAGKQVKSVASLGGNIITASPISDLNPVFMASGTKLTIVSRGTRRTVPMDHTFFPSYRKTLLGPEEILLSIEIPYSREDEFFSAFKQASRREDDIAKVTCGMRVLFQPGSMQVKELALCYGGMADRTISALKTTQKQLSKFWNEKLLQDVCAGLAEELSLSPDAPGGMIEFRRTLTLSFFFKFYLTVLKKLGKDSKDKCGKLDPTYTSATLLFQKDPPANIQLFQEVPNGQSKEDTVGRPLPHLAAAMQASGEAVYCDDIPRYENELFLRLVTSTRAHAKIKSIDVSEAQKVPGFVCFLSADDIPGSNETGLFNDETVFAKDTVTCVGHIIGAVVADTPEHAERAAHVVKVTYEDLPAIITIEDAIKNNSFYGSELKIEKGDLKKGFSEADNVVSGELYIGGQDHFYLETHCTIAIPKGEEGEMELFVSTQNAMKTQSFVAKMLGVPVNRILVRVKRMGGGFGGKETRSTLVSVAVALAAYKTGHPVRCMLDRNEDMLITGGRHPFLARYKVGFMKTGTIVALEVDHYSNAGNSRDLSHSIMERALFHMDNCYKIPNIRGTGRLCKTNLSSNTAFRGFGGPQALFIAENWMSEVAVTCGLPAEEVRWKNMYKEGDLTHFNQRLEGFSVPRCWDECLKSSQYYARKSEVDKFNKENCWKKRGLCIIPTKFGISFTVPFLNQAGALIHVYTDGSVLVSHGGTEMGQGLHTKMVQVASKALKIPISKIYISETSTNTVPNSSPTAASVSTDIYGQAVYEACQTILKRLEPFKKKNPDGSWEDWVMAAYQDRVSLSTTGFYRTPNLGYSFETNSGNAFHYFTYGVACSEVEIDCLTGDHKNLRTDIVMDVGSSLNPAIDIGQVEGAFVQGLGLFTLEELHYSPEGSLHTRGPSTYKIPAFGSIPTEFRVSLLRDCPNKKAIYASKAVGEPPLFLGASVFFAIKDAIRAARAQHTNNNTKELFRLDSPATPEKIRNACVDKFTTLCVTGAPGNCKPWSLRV

For `Cn1nc(-c2cccc(Cl)c2)cc1C(=O)O` [R=3-Cl, R^1=H, 1-Methyl-3-(3-chlorophenyl)pyrazole-5-carboxylic acid], the IC50 on xanthine oxidase [1] (setting [4]) is 304 nM.

As to `Cn1nc(-c2cccc(C(F)(F)F)c2)cc1C(N)=O` [R=NH2], the “Oral Percent Inhibition” value with xanthine oxidase [2] (dosage 90 mg·kg) was determined as 23.5%.

In the case of `COC(=O)c1cc(-c2cccc(C(F)(F)F)c2)nn1C` [R=OCH3, methyl 1-methyl-3-(3-trifluoromethylphenyl)pyrazole-5-carboxylate], in the data set with xanthine oxidase [2] (dosage 24 mg·kg), the “Oral Percent Inhibition” value is 50%.

Take `Cn1nc(-c2ccc(Br)cc2)cc1C(=O)O` [R=4-Br, R^1=H, 1-methyl-3-(4-bromophenyl)pyrazole-5-carboxylic acid]: at xanthine oxidase [1] (setting [4]), the IC50 is 416 nM.

In the case of `Cn1nc(-c2cccc(C(F)(F)F)c2)c(Br)c1C(=O)O` [R=CF3, X=Br, 1-methyl-3-(3-trifluoromethylphenyl)-4-bromopyrazole-5-carboxylic acid], in data set [3], the ED50 turned out to be 11 mg/kg. For the same compound, the IC50 at xanthine oxidase [1] (setting [4]) was 57.3 nM. Besides, in “oral LD50 in mice”, the selectivity ratio lay within 27 to 45 and the LD50 lay within 300 to 500 mg/kg.

`Cn1nc(-c2cccc(C(F)(F)F)c2)cc1C(=O)O` [R=3-CF3, R^1=H, 1-methyl-3-(3-trifluoromethylphenyl)pyrazole-5-carboxylic acid]: the ED50 in data set [3] was found to be 30 mg/kg. Moreover, the IC50 on xanthine oxidase [1] (setting [4]) is 25.9 nM. In the data set “oral LD50 in mice”, the selectivity ratio amounted to 19.5 and the LD50 was 585 ± 45 mg/kg.

On to `Cn1nc(-c2cccc(C(F)(F)F)c2)c(O)c1C(=O)O` [R=CF3, X=OH, 1-methyl-3-(3-trifluoromethylphenyl)-4-hydroxypyrazole-5-carboxylic acid], for which, on xanthine oxidase [1] (setting [4]), the IC50 is 28 nM.

For the compound `Cn1nc(-c2cccc(C(F)(F)F)c2)c(Cl)c1C(=O)O` [R=CF3, X=Cl, 1-Methyl-3-(3-trifluoromethylphenyl)-4-chloropyrazole-5-carboxylic acid], the ED50 in data set [3] was found to be 8.5 mg/kg. For the same compound, the IC50 at xanthine oxidase [1] was 46 nM. In addition, in the data set “oral LD50 in mice”, the selectivity ratio turned out to be 38 and the LD50 was found to be 322 ± 38 mg/kg.

Take `Cc1cccc(-c2cc(C(=O)O)n(C)n2)c1` [R=3-CH3, R^1=H, 1-Methyl-3-(m-tolyl)pyrazole-5-carboxylic acid]: the IC50 at xanthine oxidase [1] (setting [4]) is 1390 nM.

Consider `COc1ccc(-c2cc(C(=O)O)n(C)n2)cc1` [R=4-OCH3, R^1=H, 1-Methyl-3-(4-methoxyphenyl)pyrazole-5-carboxylic acid], for which the IC50 at xanthine oxidase [1] (setting [4]) is 310 nM.

Turning to `O=C(O)c1[nH]nc(-c2ccc(F)cc2)c1O` [R=4-F, X=OH], the IC50 on xanthine oxidase [1] (setting [4]) is 1580 nM.

For the compound `Cn1nc(-c2ccc(Cl)cc2)cc1C(=O)O` [R=4-Cl, R^1=H, 1-Methyl-3-(4-chlorophenyl)pyrazole-5-carboxylic acid], the IC50 on xanthine oxidase [1] (setting [4]) was 1690 nM.

With `COc1ccc(-c2cc(C(=O)O)n(C)n2)cc1OC` [R=3-OCH3, R^1=4-OCH3, 1-Methyl-3-(3,4-dimethyoxyphenyl)pyrazole-5-carboxylic acid], the IC50 at xanthine oxidase [1] (setting [4]) is 244 nM.

For `Cn1nc(-c2cccc(C(F)(F)F)c2)c(N)c1C(=O)O` [R=CF3, X=NH2, 1-Methyl-3-(3-trifluoromethylphenyl)-4-aminopyrazole-5-carboxylic acid], the ED50 in data set [3] is 23 mg/kg. Moreover, the IC50 on xanthine oxidase [1] (setting [4]) is 30.2 nM.

For `COc1ccc(-c2n[nH]c(C(=O)O)c2O)cc1` [R=4-OMe, X=OH], the IC50 on xanthine oxidase [1] (setting [4]) was 726 nM.

On to `Cn1nc(-c2cccc(Br)c2)c(Cl)c1C(=O)O` [R=Br, X=Cl, 1-Methyl-3-(3-bromophenyl)-4-chloropyrazole-5-carboxylic acid], for which, on xanthine oxidase [1] (setting [4]), the IC50 was 66.5 nM.

As to `Cn1nc(-c2cccc(Br)c2)cc1C(=O)O` [R=3-Br, R^1=H, 1-Methyl-3-(3-bromophenyl)pyrazole-5-carboxylic acid], the IC50 on xanthine oxidase [1] (setting [4]) was 71.1 nM.

As for `Cn1nc(-c2ccc(C(F)(F)F)cc2)cc1C(=O)O` [R=4-CF3, R^1=H, 1-methyl-3-(4-trifluoromethylphenyl)pyrazole-5-carboxylic acid], the IC50 on xanthine oxidase [1] (setting [4]) is 426 nM.

In the case of `Cn1nc(-c2ccc(Cl)c(Cl)c2)cc1C(=O)O` [R=3-Cl, R^1=4-Cl, 1-Methyl-3-(3,4-dichlorophenyl)pyrazole-5-carboxylic acid], the IC50 on xanthine oxidase [1] (setting [4]) was 177 nM.

On to `O=C(O)c1[nH]nc(-c2cccc(C(F)(F)F)c2)c1O` [R=3-CF3, X=OH, 3(5)-(3-Trifluoromethylphenyl)-4-hydroxypyrazole-5(3)-carboxylic acid], for which the IC50 on xanthine oxidase [1] (setting [4]) is 44.8 nM.

With `O=C(O)c1cc(-c2cccc(C(F)(F)F)c2)n[nH]1` [R=3-CF3, X=H, 3(5)-(3-trifluoromethylphenyl)pyrazole-5(3)-carboxylic acid], the IC50 at xanthine oxidase [1] (setting [4]) was 390 nM.
